Tests used:
[1] = system: TRADD-induced NF-κB activation; experiment: TRADD-induced NF-κB activation in HEK293 cells; format: cell-based, human; conditions: HEK293, TRADD overexpression, 0.1 to 200 μM
[2] = system: TNFR1-stimulated NF-κB activation; experiment: LTα-induced NF-κB activation luciferase assay in HEK293 cells; format: cell-based, human
TNFR1 PLAD dimer = biological target: T1, TNFR1 PLAD dimer (Homo sapiens, UniProt P19438); experiment: Native gel characterization of soluble TNFR1 PLAD dimer; conditions: compounds 200 μM
T1 sequence (P19438 30-82): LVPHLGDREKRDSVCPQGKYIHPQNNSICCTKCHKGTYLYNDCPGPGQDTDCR

human TNFR1 ECD = biological target: T2, human TNFR1 ECD (Homo sapiens, UniProt P19438); experiment: SPR binding assay on immobilized TNFR1 ECD
T2 sequence (P19438 30-211 limits assumed): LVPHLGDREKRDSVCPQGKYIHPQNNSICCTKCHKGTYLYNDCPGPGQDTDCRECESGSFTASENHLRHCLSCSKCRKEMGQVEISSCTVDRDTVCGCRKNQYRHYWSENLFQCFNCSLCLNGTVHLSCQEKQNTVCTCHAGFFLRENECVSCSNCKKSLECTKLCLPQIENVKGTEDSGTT

TNFR1 ECD dimer = biological target: T3, TNFR1 ECD dimer (Homo sapiens, UniProt P19438); experiment: Native gel characterization of soluble TNFR1 ECD dimer; format: biochemical; conditions: compounds 200 μM
T3 sequence (P19438 30-211 limits assumed): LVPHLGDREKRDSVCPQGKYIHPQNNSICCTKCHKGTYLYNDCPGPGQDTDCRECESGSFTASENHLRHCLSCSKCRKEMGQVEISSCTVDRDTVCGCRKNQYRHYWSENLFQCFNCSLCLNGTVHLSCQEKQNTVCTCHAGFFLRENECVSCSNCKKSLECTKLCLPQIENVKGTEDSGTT

[3] = system: TNFR1-stimulated NF-κB activation; conditions: read-out: absolute IC50, inhibition of ligand-induced NF-κB activation; cited from earlier work
[4] = system: basal NF-κB activation in TNFR1 KO HAP1 cells; experiment: Basal NF-κB activation in TNFR1 KO HAP1 cells; format: cell-based, human
[5] = biological target: T4, recombinant human TNFR1 extracellular domain (human, UniProt P19438 30-211); experiment: SPR
T4 sequence (looked up): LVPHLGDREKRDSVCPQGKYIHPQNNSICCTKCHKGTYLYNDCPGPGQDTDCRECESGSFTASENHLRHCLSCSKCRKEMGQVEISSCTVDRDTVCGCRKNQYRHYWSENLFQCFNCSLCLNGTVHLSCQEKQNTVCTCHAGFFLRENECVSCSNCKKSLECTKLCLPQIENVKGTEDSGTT

[6] = biological target: T5, soluble FLAG-tagged lymphotoxin-α (LTα), P01374; experiment: native gel or EMSA; conditions: remark: other sources report otherwise
T5 chain: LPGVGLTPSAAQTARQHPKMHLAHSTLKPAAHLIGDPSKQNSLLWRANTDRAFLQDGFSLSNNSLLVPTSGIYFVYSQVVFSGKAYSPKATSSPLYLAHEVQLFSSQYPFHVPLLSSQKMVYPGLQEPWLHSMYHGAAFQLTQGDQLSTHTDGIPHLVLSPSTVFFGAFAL

native gel or EMSA = biological target: the molecule itself; experiment: native gel or EMSA

COc1cc(C(=O)NS(=O)(=O)c2ccccc2C)ccc1Cc1cn(C)c2ccc(NC(=O)OC3CCCC3)cc12 [zafirlukast]
effect on TRADD-induced NF-κB activation [1]: little effect
extent of inhibition of NF-κB activation ([2]; HEK293, LTα, maximal inhibition): 55%
IC50 for inhibition of NF-κB in the presence of H398 ([2]; presence of H398 antibody): unchanged
disruption of soluble PLAD dimers (TNFR1 PLAD dimer): disrupted
Kd (human TNFR1 ECD): 86 µM
noncompetitive binding of LTα and compound to TNFR1 ECD (human TNFR1 ECD; SPR, LTα 50 nM, compound 200 μM): equal to the sum of the individual response
LTα binding affinity to TNFR1 ECD in the presence of compound (human TNFR1 ECD; SPR, compound at saturating 200 μM): essentially unchanged
competition with H398 for binding TNFR1 (human TNFR1 ECD; SPR, compounds 200 μM, H398 at 1.0 nM): did not compete with H398
disruption of TNFR1 ECD dimer (TNFR1 ECD dimer): disrupted
IC50 [3]: 50 µM
effect on basal level of NF-κB activation in TNFR1 KO cells (specificity) [4]: almost no effect on basal activity

B1: soluble FLAG-tagged lymphotoxin-α (LTα) (ligand, UniProt P01374 35-205, looked up)
chain: LPGVGLTPSAAQTARQHPKMHLAHSTLKPAAHLIGDPSKQNSLLWRANTDRAFLQDGFSLSNNSLLVPTSGIYFVYSQVVFSGKAYSPKATSSPLYLAHEVQLFSSQYPFHVPLLSSQKMVYPGLQEPWLHSMYHGAAFQLTQGDQLSTHTDGIPHLVLSPSTVFFGAFAL
Kd [5]: 0.037 µM
stoichiometry N [6]: 3

B2: FLAG-tagged TNFR1 PLAD (residues 30 to 82) (domain or fragment, UniProt P19438 30-82, looked up)
chain: LVPHLGDREKRDSVCPQGKYIHPQNNSICCTKCHKGTYLYNDCPGPGQDTDCR
stoichiometry N (native gel or EMSA): 2

Reference: paper PMC7008598 (Science signaling, 2019)
